From patent US11331364B2, “Use for JNK inhibitor molecules for treatment of various diseases” (Xigen Inflammation Ltd., priority 2014, dated 2022)
Square brackets hold non-standard residues; d marks the D form. Peptide text beside a SMILES is read from it.

Experiments:
[1] = test system: acute CYP-induced cystitis in female Sprague-Dawley rats; test: Cyclophosphamide-induced acute cystitis, intravenous treatment, visceral pain; format: in vivo, rat; conditions: 2 mg/kg, i.v.; 24 h after CYP
Experimental: The aim of the present study was to evaluate the effects of intravenous treatment with XG-104 (2 mg/kg) on urinary bladder pain in acute CYP-induced cystitis in female Sprague-Dawley rats. This preclinical model is well-used to test therapeutic approaches for the treatment of interstitial cystitis/painful bladder syndrome (IC/PBS).
Adult female Sprague-Dawley rats (Janvier Labs, Le Genest Saint Isle, France), weighing 215±20 g at the beginning of the experiments, were used. Animals were acclimatized to the laboratory conditions for at least 3 days before the start of any experiments. The animals were allocated to the following four experimental groups (n=10 animals per group):
To induce acute cystitis, a single i.p. injection of CYP at a dose of 150 mg/kg in a final volume of 5 mL/kg was performed. Control rats received physiological saline under the same experimental conditions as CYP (final volume of 5 mL/kg, i.p.).
On the day of each experiment, weight of rats was recorded.
Assessment of referred visceral pain using von Frey filaments: Standardized conditions including fixed time-of-day (a.m. to minimize the potential circadian variations in the behaviours responses) and single-experimenter testing of all animals were applied to minimize variability behavior-based pain testing. Visceral pain including allodynia and hyperalgesia was evaluated by applying to the lower abdomen, close to the urinary bladder, a set of 8 calibrated von Frey filaments of increasing forces (1, 2, 4, 6, 8, 10, 26 and 60 g) with an interstimulus interval of 5 seconds. Prior testing, the abdominal area designed for mechanical stimulation of each animal was shaved. Animals were then placed on a raised wire mesh floor under individual transparent Plexiglas box and acclimatized for at least 30 minutes before starting the von Frey test. Filaments were then applied 1-2 seconds through the mesh floor with enough strength to cause the filament to slightly bend. Each filament was tested 3 times. Care was taken to stimulate different areas within the lower abdominal region in the vicinity of the urinary bladder to avoid desensitization.
The study design differs from that of Example 24 (cf. FIG. 50 A) only in the route of administration (intravenously instead of intravesically) and the doses as specified above. Birefly, acute cystitis was induced by CYP injection (i.p.) at Do (as described above). […]

[2] = test system: primary mouse cortical neuron cultures; test: Neuronal apoptosis after Aβ42 stress in WT primary cortical neurons (cleaved PARP, caspase 3); format: cell-based
Experimental: To this end, primary mouse cortical neuron cultures were exposed to either 2 μM or 25 μM of β-amyloid 1-42 (Aβ42) for 5 hours to induce Aβ42 cell stress. […] Levels of phosphorylated JNK (pJNK), total JNK (JNK), cleaved PARP and Tubulin (control) were determined. The ratio of pJNK/JNK served as a measure of JNK activity. The level of cleaved protein PARP, which is known to increase during apoptosis, served as a measure of neuronal apoptosis.
To obtain primary cortical neuronal cultures, E15.5 mice embryos were dissected in PBS (Phosphate Buffered Saline) 6% glucose, on ice. Embryos cortices were minced into small pieces and treated with PBS glucose trypsin (Sigma Aldrich, Saint-Louis, USA) for 20 min at 37° C. Dissociated cortical cells were cultured in Neurobasal media complemented with B27, Glutamax and penicillin-streptomycin (Gibco). Neurons were cultured at 37° C., 5% CO2 on pre-coated with poly-L-lysin (Sigma Aldrich) petri dishes. Neurons were cultured to maturity (7 days) before use.
To induce […] stress 2 μM of Aβ1-42 (Thermo Fisher Scientific, Mass., USA) were used during 5 h on cortical neurons. Aβ42-1 inversed peptide (Thermo Fisher Scientific) was used as negative control. AP 1-42 and Aβ42-1 were dissolved in pure water and incubated at 37° C. for 48 h before use. […]
For immunoblot analysis cells were lysed on ice in a lysis buffer containing […] NaPi pH 7.8, […] NaCl, 1% Triton, 0.5% DOC, 0.1% SDS, 10% glycerol, 0.1 μM calyculin A, 1 mM Na3VO4 and 1× of a protease inhibitor cocktail (Sigma Aldrich). Lysates were sonicated and centrifugated 10 min at 15000 g at 4° C. The supernatant protein concentration was determined with the Micro BCA protein assay kit (Thermo Scientific). Thirty micrograms of proteins were resolved on SDS-PAGE and transferred onto nitrocellulose membrane. After blocking with TBS 5% skim milk, the membranes were probed with primary antibodies to JNK full, c-Jun, PKR, eIF2α (Santa Cruz, Danvers, USA), pJNK (Millipore, Billerica, USA), phosphor eIF2a (Thermo Fisher Scientific), PARP and tubulin (Cell Signaling, Danvers, USA). IR Dyes 800 and 700 (Rockland Immunochemical Inc, Gilbertsville, USA) antibodies were used as secondary antibodies. Blots were reveled with Odyssey imaging system (LI-COR Biosciences, Lincoln, USA).
For caspase 3 activity analysis culture cell supernatants containing degenerating and dead neurons, and cell medium were collected in parallel of adhesive neurons lysis. Culture cell supernatants were centrifugated 10 min at 15000 g at 4° C. Pellets were then resuspended in lysis buffer and caspase 3 activity was measured by using the Caspase 3 Assay kit reagents and protocol (Abcam, Cambridge, UK).

[3] = WT neurons, 10 μM, vs Aβ42 treated WT neurons

## CC(C)C[C@H](NC(=O)[C@H](CC(N)=O)NC(=O)[C@H](CC(C)C)NC(=O)[C@@H](NC(=O)[C@@H](C)NC(=O)[C@@H]1CCCN1C(=O)[C@H](CCCNC(=N)N)NC(=O)[C@@H](CCCCN)NC(=O)[C@@H]1CCCN1C(=O)[C@H](CCCNC(=N)N)NC(=O)[C@@H](CCCNC(=N)N)NC(=O)[C@H](CCCNC(=N)N)NC(=O)[C@H](CCCNC(=N)N)NC(=O)[C@H](CCC(N)=O)NC(=O)[C@@H](CCCNC(=N)N)NC(=O)[C@H](CCCNC(=N)N)NC(=O)[C@H](CCCCN)NC(=O)[C@H](CCCCN)NC(=O)[C@H](N)CCCNC(=N)N)[C@@H](C)O)C(=O)N[C@H](Cc1ccccc1)C(N)=O [SEQ ID NO: 172, rKKRrQRRrRPkRPaTLNLf] (H-[dR]KKR[dR]QRR[dR]RP[dK]RP[dA]TLNL[dF]-NH2; N-terminus assumed)
[1]
  AUC 1-8 g (allodynia) vs vehicle: significantly decreased
  AUC 8-60 g (hyperalgesia) vs vehicle: significantly reduced
  nociceptive scores vs vehicle: significantly decreased
  nociceptive threshold vs vehicle: significantly increased
[2]; 2 μM Aβ42, 5 μM pre-treatment
  decrease of PARP cleavage: 46.8%
[2]; 2 μM Aβ42, 10 μM pre-treatment
  decrease of PARP cleavage: 80.2%
[2]; 25 μM Aβ42, 5 μM pre-treatment
  decrease of PARP cleavage: 69%
[2]; 25 μM Aβ42, 10 μM pre-treatment
  decrease of PARP cleavage: 80.6%
[2]; Aβ42-induced apoptosis
  efficiency to reduce apoptosis, 10 μM relative to 5 μM: 1.7
[2]; [3]
  decrease of caspase 3 activity: 78%
  decrease of cleaved PARP expression level: 77%
  reduction of cleaved caspase 3 expression level: 61%
